Observed efficacy data for 11 compounds are collected here from patent US20140200136A1, “Agricultural mixtures comprising arylquinazolinone compounds” (BASF SE, priority 2011, published 2014).

Type in all cases: cell-based
In one test the test system is Pyricularia oryzae. Conditions: single active.
The test system of another test is Leptosphaeria nodorum. Nature of the test: Activity against wheat leaf spots caused by Leptosphaeria nodorum (Leptno), microtiter plate test. As to conditions: single active, 7 days after inoculation.
A further test concerns Septoria tritici. Nature of the test: Activity against leaf blotch on wheat caused by Septoria tritici (Septtr), microtiter plate test. As to conditions: single active.

Like-named read-outs stand apart in the source and are kept apart here.

`O=C(Nc1ccccc1-c1ccc(Cl)cc1)c1cccnc1Cl` [Boscalid]: the Observed efficacy in the test with Pyricularia oryzae (16 ppm) is on record as 8.
Consider `Cc1cc(F)c(-n2cnc3ccc(F)cc3c2=O)cc1[S+]([O-])CC(F)(F)F` (stereo not drawn) [CE.I.31, 6-Fluoro-3-[2-fluoro-4-methyl-5-2(2,2,2-trifluoroethanesulfinyl)-phenyl]-3H-quinazolin-4-one], for which the Observed efficacy in the test on Leptosphaeria nodorum (concentration 63 ppm) is on record as 19; in the test with Pyricularia oryzae (1 ppm), 8; in the test with Pyricularia oryzae (4 ppm), 11; in the test with Pyricularia oryzae (63 ppm) it was 16; with Septoria tritici (63 ppm), 19.
On to `COC(=O)Nc1nc2ccccc2[nH]1` [Carbendazim], for which the Observed efficacy in the test with Pyricularia oryzae (0.25 ppm) is 19.
The same measure, in the same setting: the result for `N#Cc1c(Cl)c(Cl)c(Cl)c(C#N)c1Cl` [Chlorothalonil] reads 30.
In the test on Pyricularia oryzae (1 ppm), `Cc1ccc(-c2c(Cl)nc(C#N)n2S(=O)(=O)N(C)C)cc1` [Cyazofamid] yielded an Observed efficacy of 10.
Regarding `CO/N=C(/C1=NOCCO1)c1ccccc1Oc1ncnc(Oc2ccccc2Cl)c1F` [Fluoxastrobin], in the test on Septoria tritici (0.25 ppm), the Observed efficacy is 58.
Turning to `Cn1cc(C(=O)Nc2ccccc2-c2cc(F)c(F)c(F)c2)c(C(F)F)n1` [Fluxapyroxad], in the test with Septoria tritici (0.063 ppm), the Observed efficacy is recorded as 58.
Compound `CO/C=C(/C(=O)OC)c1ccccc1COc1cccc(C(F)(F)F)n1` [Picoxystrobin] gave an Observed efficacy in the test with Pyricularia oryzae (0.016 ppm) of 19.
In the case of `COC(=O)N(OC)c1ccccc1COc1ccn(-c2ccc(Cl)cc2)n1` [Pyraclostrobin], the Observed efficacy in the test with Pyricularia oryzae (0.004 ppm) came out at 32.
`CON=C(C(=O)OC)c1ccccc1CON=C(C)c1cccc(C(F)(F)F)c1` [Trifloxystrobin] gave an Observed efficacy in the test with Pyricularia oryzae (0.016 ppm) of 26.
Regarding “zinc propylenebis(dithiocarbamate) polymer [Propineb, reference compound]”, the Observed efficacy in the test on Leptosphaeria nodorum (concentration 4 ppm) is listed as 57.
